The results in this text go back to publication PMC4746591, “Internal (His)6-tagging delivers a fully functional hetero-oligomeric class II chaperonin in high yield” (Scientific Reports, 2016).

For assay [1], the target named is T1, (His)6-tagged α8/β8 thermosome (Ht thermosome, αK144Ht) (Thermoplasma acidophilum, UniProt P48424+P48425).
T1 construct: gene thsA; full-length alpha with internal His6 inserted after Lys144, untagged beta; co-expressed in E. coli; α8/β8 hexadecamer, about 960 kDa
The assay can be described thus: coupled enzymatic steady-state ATPase assay. The class given is biochemical. To be noted: 55 °C; tighter site of a two-site fit; read-out: KM1.

The target in assay [2] is T2, thermosome α subunit with a (His)6-tag downstream Lys144 (αK144Ht) (Thermoplasma acidophilum, UniProt P48424 1-545).
T2 construct: thermosome α subunit, Thermoplasma acidophilum, P48424; synthetic gene (Invitrogen) with six histidines inserted downstream of Lys144, in the loop between beta sheet β4 and alpha helix α6; Eight copies stand in the α8/β8 hexadecamer; also called K144-(His)6 α-subunit; (His)6-tagged α subunit; source: E. coli BL21(DE3) Codon Plus-RIL, co-expressed with the β subunit from the construct …
T2 sequence: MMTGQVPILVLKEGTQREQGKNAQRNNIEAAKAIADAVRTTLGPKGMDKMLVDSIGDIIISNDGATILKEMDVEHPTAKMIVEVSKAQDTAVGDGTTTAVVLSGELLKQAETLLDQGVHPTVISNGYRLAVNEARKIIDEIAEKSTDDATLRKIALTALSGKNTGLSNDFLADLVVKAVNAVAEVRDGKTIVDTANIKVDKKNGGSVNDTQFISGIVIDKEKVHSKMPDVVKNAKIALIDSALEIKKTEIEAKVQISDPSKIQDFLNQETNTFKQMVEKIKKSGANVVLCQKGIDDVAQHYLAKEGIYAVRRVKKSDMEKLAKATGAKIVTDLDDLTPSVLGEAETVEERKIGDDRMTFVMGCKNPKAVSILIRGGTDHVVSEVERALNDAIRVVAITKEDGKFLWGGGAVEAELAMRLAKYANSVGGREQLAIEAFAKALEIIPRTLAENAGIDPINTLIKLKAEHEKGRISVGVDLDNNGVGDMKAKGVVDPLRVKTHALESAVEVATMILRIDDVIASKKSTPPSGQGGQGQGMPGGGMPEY
The assay can be described thus: SEC; peak from the affinity column run on Superose 6 (or HiLoad 26/600 Superdex 200) in 25 mM TrisHCl, 150 mM NaCl, 5 mM EDTA pH 7.5, room temperature; single peak of about 960 kDa to 1 MDa (hexadecamer); SDS-PAGE of the peak; subunits co-expressed and co-purified. To be noted: both partners purified. Background: In gel filtration, larger molecules generally elute earlier.

With `Nc1ncnc2c1ncn2[C@@H]1O[C@H](COP(=O)(O)OP(=O)(O)OP(=O)(O)O)[C@@H](O)[C@H]1O` [ATP], in assay [1], the Km was 15 µM.

B1: thermosome β subunit (natural protein, Thermoplasma acidophilum)
chain: MIAGQPIFILKEGTKRESGKDAMKENIEAAIAISNSVRSSLGPRGMDKMLVDSLGDIVITNDGVTILKEMDVEHPAAKMMVEVSKTQDSFVGDGTTTAVIIAGGLLQQAQGLINQNVHPTVISEGYRMASEEAKRVIDEISTKIGADEKALLLKMAQTSLNSKSASVAKDKLAEISYEAVKSVAELRDGKYYVDFDNIQVVKKQGGAIDDTQLINGIIVDKEKVHPGMPDVVKDAKIALLDAPLEIKKPEFDTNLRIEDPSMIQKFLAQEENMLREMVDKIKSVGANVVITQKGIDDMAQHYLSRAGIYAVRRVKKSDMDKLAKATGASIVSTIDEISSSDLGTAERVEQVKVGEDYMTFVTGCKNPKAVSILVRGETEHVVDEMERSITDSLHVVASALEDGAYAAGGGATAAEIAFRLRSYAQKIGGRQQLAIEKFADAIEEIPRALAENAGLDPIDILLKLRAEHAKGNKTYGINVFTGEIEDMVKNGVIEPIRVGKQAIESATEAAIMILRIDDVIATKSSSSSSNPPKSGSSSESSED
notes: thermosome β subunit, Thermoplasma acidophilum, P48425; untagged; Eight copies stand in the α8/β8 hexadecamer; also called un-tagged β-subunit; source: E. coli BL21(DE3) Codon Plus-RIL, co-expressed in tandem with the α subunit (αK144HTTherm or pETTherm α/β); in lysate, then purified with the complex
As for B1, the “stoichiometry N” value in assay [2] was 1 α:β ratio.
